Laboratory results published in ChEMBL document CHEMBL1909046, “DrugMatrix in vitro pharmacology data”.

How the values were obtained:
[1] = DRUGMATRIX: Platelet-Derived Growth Factor (PDGF) radioligand binding (ligand: [125I] PDGF); type: cell-based; conditions: nih3t3; Not Active = under 50% inhibition at 10 µM
[2] = DRUGMATRIX: Sigma2 radioligand binding (ligand: [3H] Ifenprodil); type: cell membranes, Rattus norvegicus, Wistar, Brain, Membrane; conditions: Not Active = under 50% inhibition at 10 µM
[3] = target: Melanocortin receptor 3 (Homo sapiens, UniProt P41968); type: cell membranes, Membrane; conditions: hek293; note: in other assays of this panel Not Active means under 50% inhibition at 10 µM
[4] = DRUGMATRIX: GABAA, Muscimol, Central radioligand binding (ligand: [3H] Muscimol); type: cell membranes, Rattus norvegicus, Wistar, Brain, Membrane; conditions: Not Active = under 50% inhibition at 10 µM
[5] = target: 5-hydroxytryptamine receptor 4 (Cavia porcellus, UniProt O70528); type: cell membranes, Dunkin-Hartley, Striatum, Membrane; note: in other assays of this panel Not Active means under 50% inhibition at 10 µM
[6] = DRUGMATRIX: Glutamate, NMDA, Agonism radioligand binding (ligand: [3H] CGP-39653); type: cell membranes, Rattus norvegicus, Wistar, Cerebral cortex, Membrane; conditions: Not Active = under 50% inhibition at 10 µM
[7] = target: Glycine receptor (Rattus norvegicus, UniProt P22771+P24524+P07727+P20781); type: cell membranes, Wistar, Spinal cord, Membrane; note: in other assays of this panel Not Active means under 50% inhibition at 10 µM
[8] = target: Estrogen receptor beta (Homo sapiens, UniProt Q92731); conditions: sf9; note: in other assays of this panel Not Active means under 50% inhibition at 10 µM
Sequence of Estrogen receptor beta (Q92731 whole entry): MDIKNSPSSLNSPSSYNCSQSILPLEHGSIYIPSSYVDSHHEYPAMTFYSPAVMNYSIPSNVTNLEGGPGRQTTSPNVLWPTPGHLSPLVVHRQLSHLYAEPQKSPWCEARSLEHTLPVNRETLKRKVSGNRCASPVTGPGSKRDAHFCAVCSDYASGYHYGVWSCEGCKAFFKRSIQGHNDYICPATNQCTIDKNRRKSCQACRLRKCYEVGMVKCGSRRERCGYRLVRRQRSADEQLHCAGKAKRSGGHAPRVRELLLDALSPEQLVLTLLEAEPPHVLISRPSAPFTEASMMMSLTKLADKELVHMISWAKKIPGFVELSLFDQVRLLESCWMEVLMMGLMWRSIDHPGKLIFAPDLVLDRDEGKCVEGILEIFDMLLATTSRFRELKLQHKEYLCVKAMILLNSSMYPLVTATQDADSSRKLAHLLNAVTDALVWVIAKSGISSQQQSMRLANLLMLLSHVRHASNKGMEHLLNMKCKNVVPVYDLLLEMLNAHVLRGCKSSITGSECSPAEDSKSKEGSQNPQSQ

Sequence of 5-hydroxytryptamine receptor 4 (O70528 whole entry): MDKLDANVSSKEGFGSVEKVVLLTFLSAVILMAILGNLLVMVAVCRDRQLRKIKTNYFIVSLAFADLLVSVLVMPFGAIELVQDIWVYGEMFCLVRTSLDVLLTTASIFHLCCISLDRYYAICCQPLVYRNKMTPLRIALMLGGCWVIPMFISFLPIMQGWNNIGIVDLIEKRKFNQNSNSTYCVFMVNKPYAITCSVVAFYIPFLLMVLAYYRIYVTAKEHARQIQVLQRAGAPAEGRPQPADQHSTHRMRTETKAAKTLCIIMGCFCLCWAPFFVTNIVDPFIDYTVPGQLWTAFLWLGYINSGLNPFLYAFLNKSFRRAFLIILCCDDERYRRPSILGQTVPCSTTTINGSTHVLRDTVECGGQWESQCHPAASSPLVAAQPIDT
Sequence of Melanocortin receptor 3 (P41968 whole entry): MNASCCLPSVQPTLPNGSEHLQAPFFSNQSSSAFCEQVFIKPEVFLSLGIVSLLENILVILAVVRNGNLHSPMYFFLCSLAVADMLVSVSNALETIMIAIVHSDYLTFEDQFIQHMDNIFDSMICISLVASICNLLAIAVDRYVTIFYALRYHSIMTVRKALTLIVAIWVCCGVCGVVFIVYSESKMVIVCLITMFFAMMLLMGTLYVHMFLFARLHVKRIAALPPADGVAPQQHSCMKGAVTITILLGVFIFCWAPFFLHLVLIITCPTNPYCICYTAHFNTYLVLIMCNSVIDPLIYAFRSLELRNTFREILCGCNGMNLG

COc1ccccc1OCC(O)COC(N)=O (centres undefined) [METHOCARBAMOL]
Not Active: IC50 [1] | Ki [1] | IC50 [2] | Ki [2] | IC50 [3] | IC50 [4] | Ki [4] | IC50 [5] | IC50 [6] | Ki [6] | IC50 [7]

CO[C@@]1(NC(=O)CSCC#N)C(=O)N2C(C(=O)O)=C(CSc3nnnn3C)CS[C@@H]21 [CEFMETAZOLE]
Not Active: IC50 [1] | Ki [1] | IC50 [2] | Ki [2] | IC50 [3] | IC50 [8] | IC50 [4] | Ki [4] | IC50 [5] | IC50 [6] | Ki [6] | IC50 [7]

C=C(CC)C(=O)c1ccc(OCC(=O)O)c(Cl)c1Cl [ETHACRYNIC ACID]
Not Active: IC50 [1] | Ki [1] | IC50 [2] | Ki [2] | IC50 [3] | IC50 [4] | Ki [4] | IC50 [5] | IC50 [6] | Ki [6] | IC50 [7]

Oc1ccccc1O [CATECHOL]
Not Active: IC50 [1] | Ki [1] | IC50 [2] | Ki [2] | IC50 [3] | IC50 [8] | IC50 [4] | Ki [4] | IC50 [5] | IC50 [6] | Ki [6] | IC50 [7]

CC(C)(CO)C(O)C(=O)NCCCO (centres undefined) [PANTHENOL]
Not Active: IC50 [1] | Ki [1] | IC50 [2] | Ki [2] | IC50 [3] | IC50 [8] | IC50 [4] | Ki [4] | IC50 [5] | IC50 [6] | Ki [6] | IC50 [7]

NC(=O)N1c2ccccc2C=Cc2ccccc21 [CARBAMAZEPINE]
Not Active: IC50 [1] | Ki [1] | IC50 [2] | Ki [2] | IC50 [3] | IC50 [8] | IC50 [4] | Ki [4] | IC50 [5] | IC50 [6] | Ki [6] | IC50 [7]

CC(=O)O[C@]1(C(C)=O)CC[C@H]2[C@@H]3C=C(C)C4=CC(=O)CC[C@]4(C)[C@H]3CC[C@@]21C [MEGESTROL ACETATE]
Not Active: IC50 [1] | Ki [1] | IC50 [2] | Ki [2] | IC50 [3] | IC50 [4] | Ki [4] | IC50 [5] | IC50 [6] | Ki [6] | IC50 [7]

CN1C(=O)CN=C(c2ccccc2)c2cc(Cl)ccc21 [DIAZEPAM]
Not Active: IC50 [1] | Ki [1] | IC50 [2] | Ki [2] | IC50 [3] | IC50 [4] | Ki [4] | IC50 [5] | IC50 [6] | Ki [6] | IC50 [7]

NC[C@H]1O[C@H](O[C@H]2[C@H](O)[C@@H](O[C@H]3O[C@H](CO)[C@@H](O)[C@H](N)[C@H]3O)[C@H](N)C[C@@H]2N)[C@H](O)[C@@H](O)[C@@H]1O [KANAMYCIN]
Not Active: IC50 [1] | Ki [1] | IC50 [2] | Ki [2] | IC50 [3] | IC50 [4] | Ki [4] | IC50 [5] | IC50 [6] | Ki [6] | IC50 [7]

[N-]=[N+]=CC(=O)OC[C@H](N)C(=O)O [AZASERINE]
Not Active: IC50 [1] | Ki [1] | IC50 [2] | Ki [2] | IC50 [3] | IC50 [4] | Ki [4] | IC50 [5] | IC50 [6] | Ki [6] | IC50 [7]

OCCO [ETHYLENE GLYCOL]
Not Active: IC50 [1] | Ki [1] | IC50 [2] | Ki [2] | IC50 [3] | IC50 [4] | Ki [4] | IC50 [5] | IC50 [6] | Ki [6] | IC50 [7]

Nc1nc(Cl)nc2c1ncn2[C@H]1C[C@H](O)[C@@H](CO)O1 [CLADRIBINE]
Not Active: IC50 [1] | Ki [1] | IC50 [2] | Ki [2] | IC50 [3] | IC50 [4] | Ki [4] | IC50 [5] | IC50 [6] | Ki [6] | IC50 [7]

CS(=O)(=O)OCCCCOS(C)(=O)=O [BUSULFAN]
Not Active: IC50 [1] | Ki [1] | IC50 [2] | Ki [2] | IC50 [3] | IC50 [4] | Ki [4] | IC50 [5] | IC50 [6] | Ki [6] | IC50 [7]

C/C=C\c1ccc(O)c(OC)c1 [ISOEUGENOL]
Not Active: IC50 [1] | Ki [1] | IC50 [2] | Ki [2] | IC50 [3] | IC50 [4] | Ki [4] | IC50 [5] | IC50 [6] | Ki [6] | IC50 [7]

CCOC(=O)[C@H](CCc1ccccc1)N[C@@H](C)C(=O)N1CCC[C@H]1C(=O)O
Not Active: IC50 [1] | Ki [1] | IC50 [2] | Ki [2] | IC50 [3] | IC50 [4] | Ki [4] | IC50 [5] | IC50 [6] | Ki [6] | IC50 [7]

CC[C@H]1OC(=O)[C@H](C)[C@@H](O[C@H]2C[C@@](C)(OC)[C@@H](O)[C@H](C)O2)[C@H](C)[C@@H](O[C@@H]2O[C@H](C)C[C@H](N(C)C)[C@H]2O)[C@](C)(OC)C[C@@H](C)C(=O)[C@H](C)[C@@H](O)[C@]1(C)O [CLARITHROMYCIN]
Not Active: IC50 [1] | Ki [1] | IC50 [2] | Ki [2] | IC50 [3] | IC50 [4] | Ki [4] | IC50 [5] | IC50 [6] | Ki [6] | IC50 [7]

N=C(N)N/N=C/c1c(Cl)cccc1Cl [GUANABENZ]
Not Active: IC50 [1] | Ki [1] | IC50 [2] | Ki [2] | IC50 [3] | IC50 [4] | Ki [4] | IC50 [5] | IC50 [6] | Ki [6] | IC50 [7]

CC(C)C[C@H]1C(=O)N2CCC[C@H]2[C@]2(O)O[C@](NC(=O)[C@@H]3C=C4c5cccc6[nH]c(Br)c(c56)C[C@H]4N(C)C3)(C(C)C)C(=O)N12 [BROMOCRIPTINE]
Not Active: IC50 [1] | Ki [1] | IC50 [2] | Ki [2] | IC50 [3] | IC50 [4] | Ki [4] | IC50 [5] | IC50 [6] | Ki [6] | IC50 [7]

CCN[C@@H](C)Cc1cccc(C(F)(F)F)c1 [DEXFENFLURAMINE]
Not Active: IC50 [1] | Ki [1] | IC50 [2] | Ki [2] | IC50 [3] | IC50 [4] | Ki [4] | IC50 [5] | IC50 [6] | Ki [6] | IC50 [7]

O=C(O)Cc1ccc(-c2ccccc2)cc1 [FELBINAC]
Not Active: IC50 [1] | Ki [1] | IC50 [2] | Ki [2] | IC50 [3] | IC50 [4] | Ki [4] | IC50 [5] | IC50 [6] | Ki [6] | IC50 [7]
